45 compounds from US10301294B2, “Compounds for the treatment of tuberculosis” (priority 2013, dated 2019) can be followed below.

What all share (format): cell-based
In series [1] the test system is carbon-starved M. tuberculosis H37Rv. The series is described as follows: microbe, parasite or virus in culture. Particulars: for IC90: Mycobacterium tuberculosis, H37RV, read-out: Against carbon starving non-replicating Mtb IC90.
Series [2] relates to replicating M. tuberculosis H37Rv. In words: microbe, parasite or virus in culture. Conditions: […]; for Against Replicating Mtb, % @ 62: at 62 uM.
Series [3] has the same test system. In words: microbe, parasite or virus in culture. Conditions: Mycobacterium tuberculosis, H37RV, three independent experiments in triplicate, read-out: TB Growth Inhibition Activity, IC90 Replicating_logarithmic (converted).
A short description of series [4]: Cytotoxicity against HepG2. Particulars: human, HepG2 cells, 26.0 uM highest concentration measured.
Series [5] can be described thus: Cytotoxicity against Hek 293. Particulars: human, HEK293 cells, 26.0 uM highest concentration measured.
For series [6], the system named is carbon-starved M. tuberculosis H37Rv. In words: Non-replicating IC90 determination by luciferase (carbon-starved cells). Particulars: Mycobacterium tuberculosis, H37RV; non-replicating carbon-starved Mtb, luciferase; three independent experiments in triplicate; read-out: TB Growth Inhibition Activity, IC90 Non-replicating_luciferase.
Series [7] in a line: Cytotoxicity against HeLa. Particulars: human, HeLa cells, 26.0 uM highest concentration measured.

As for `[O-][n+]1ccccc1CSc1nnc(-c2ccccc2)o1` [drawing 263], the “Against carbon starving non-replicating Mtb IC90 (uM)” value in series [1] is on record as “None”.

As to `[O-][S+](Cc1cn(Cc2ccccc2)nn1)c1nnc(-c2ccc(Cl)cc2)o1` (stereo not shown) [drawing 272], the “Against Replicating Mtb, % @ 62” value in series [2] stood at 100% @ 62. Further, the “Against carbon starving non-replicating Mtb, % @ 31” value in series [1] ([…], at 31 uM) came to 100% @ 31.

As to `COCCSc1nnc(-c2ccccc2)o1` [drawing 260], the IC90 in series [1] was 4 µM.

As to `Fc1ccc(-c2nnc(SCc3ccccn3)o2)cc1` [drawing 269], the “Against Replicating Mtb, % @ 16” value in series [2] (at 16 uM) was 98.5% @ 16. Moreover, in series [1], the “Against carbon starving non-replicating Mtb, % @ 4” value is given as 99% @ 4.

Regarding `COc1ccc(CSc2nnc(-c3ccc(Cl)cc3)o2)nc1` [drawing 275], the “Against Replicating Mtb, % @ 16 (7 d)” value in series [2] (at 16 uM, 7 d) was 99.5% @ 16 (7 d). Moreover, the “Against carbon starving non-replicating Mtb, % @ 4” value in series [1] is reported as 99% @ 4.

For the compound `Brc1cccc(-c2nnc(SCc3ccccn3)o2)c1` [drawing 271], the “Against Replicating Mtb, % @ 62” value in series [2] is 96% @ 62. Also, the IC90 in series [1] is less than 8 µM.

For the compound `Fc1ccc(CSc2nnc(-c3ccccc3)o2)cc1` [drawing 259], in series [1], the IC90 worked out at 62 µM.

As for `[O-][S+](Cc1ccccn1)c1nnc(-c2ccc(Cl)cc2)o1` (stereo not shown) [drawing 264], in series [1], the IC90 amounted to 10 µM.

Regarding `[N-]=[N+]=NCCOCCNC(=O)CCCOc1ccc(C[S+]([O-])c2nnc(-c3ccc(Cl)cc3)o2)nc1` (stereo not shown) [drawing 278], in series [1], the “Against carbon starving non-replicating Mtb, % @ 8” value worked out at 97% @ 8.

Turning to `Clc1ccccc1CSc1nnc(-c2ccccc2)o1`, the IC90 in series [3] was 250 µM; in series [6], 2 µM. For the same compound, the concentration for half-maximal inhibition (IC50) in series [4], in series [5] and in series [7] was more than 26 µM in each case.

In the case of `Cc1ccc(-c2nnc(SCc3ccccc3)o2)cc1`, the IC90 was 125 µM in series [3] and 4 µM in series [6]. Further, the 50% inhibitory concentration (IC50) in series [4], in series [5] and in series [7] was more than 26 µM throughout.

For the compound `c1ccc(CSc2nnc(-c3cscn3)o2)cc1`, the concentration for an effect of 90% (IC90) is 125 µM in series [3] and 4 µM in series [6]. Also, the IC50 in series [4], in series [5] and in series [7] was more than 26 µM throughout.

For `COc1cccc(-c2nnc(SCc3ccccc3)o2)c1`, the IC90 was 250 µM in series [3] and 8 µM in series [6]. The IC50 in series [4], in series [5] and in series [7] was more than 26 µM in each case.

Regarding `c1ccc(-c2nnc(SC3CCCCC3)o2)cc1` [drawing 262], the IC90 in series [1] was found to be 31 µM.

Consider `c1ccc(CSc2nnc(C3CCCCC3)o2)cc1`, for which the IC90 was 125 µM in series [3] and 1 µM in series [6]. The 50% inhibitory concentration (IC50) in series [4], in series [5] and in series [7] was more than 26 µM in each case.

For `c1ccc(Cn2cc(CSc3nnc(-c4ccccc4)o3)nn2)cc1`, the figures for the IC90 in series [3] and in series [6] were more than 62 µM and 4 µM, respectively. The IC50 in series [4], in series [5] and in series [7] was more than 26 µM throughout.

With `Brc1ccc(-c2nnc(SCc3ccccn3)o2)cc1` [drawing 266], the IC90 in series [1] is less than 8 µM.

With `Fc1ccc(-c2nnc(SCc3cn(-c4ccccc4)nn3)o2)cc1`, the IC90 in series [3] is more than 62 µM; in series [6], 2 µM. The IC50 in series [4], in series [5] and in series [7] was more than 26 µM each time.

As to `c1ccc(CSc2nnc(-c3ccccc3)o2)cc1`, the IC90 is 62 µM in series [3] and 8 µM in series [6]. The IC50 in series [4], in series [5] and in series [7] was more than 26 µM in each case.

Take `c1ccc(Cn2cc(CSc3nnc(C4CCCC4)o3)nn2)cc1`: the IC90 in series [3] was 62 µM; in series [6], 31 µM. The IC50 in series [4], in series [5] and in series [7] was more than 26 µM in each case.

Regarding `c1ccc(-n2cc(CSc3nnc(C4CCC4)o3)nn2)cc1`, the IC90 is 62 µM in series [3] and 2 µM in series [6]. The IC50 in series [4], in series [5] and in series [7] was more than 26 µM throughout.

In the case of `c1ccc(Cn2cc(CSc3nnc(C4CCC4)o3)nn2)cc1`, the concentration for an effect of 90% (IC90) in series [3] was more than 62 µM; in series [6] it was 8 µM. For the same compound, the IC50 in series [4], in series [5] and in series [7] was more than 26 µM throughout.

For `Fc1ccc(Cn2cc(CSc3nnc(C4CCC4)o3)nn2)cc1`, the figures for the concentration for an effect of 90% (IC90) in series [3] and in series [6] were more than 62 µM and 8 µM, respectively. The IC50 in series [4], in series [5] and in series [7] was more than 26 µM in each case.

`Clc1ccccc1-c1nnc(SCc2ccccc2)o1`: the IC90 in series [3] was 250 µM; in series [6], 32 µM. The concentration for half-maximal inhibition (IC50) in series [4], in series [5] and in series [7] was more than 26 µM in each case.

For the compound `Fc1cccc(CSc2nnc(-c3ccccc3)o2)c1`, the IC90 in series [3] is 250 µM; in series [6], 2 µM. In addition, the half-maximal inhibitory concentration (IC50) in series [4], in series [5] and in series [7] was more than 26 µM in each case.

On to `c1ccc(-c2nnc(SCc3cscn3)o2)cc1`, for which the concentration for an effect of 90% (IC90) in series [3] was 62 µM; in series [6] it was 4 µM. The IC50 in series [4], in series [5] and in series [7] was more than 26 µM throughout.

`CN(C)CCSc1nnc(-c2ccccc2)o1`: the IC90 in series [3] is 500 µM; in series [6], 16 µM. In addition, the IC50 in series [4], in series [5] and in series [7] was more than 26 µM in each case.

With `CC(C)c1nnc(SCc2ccccc2)o1`, the IC90 in series [3] was 125 µM; in series [6], 2 µM. Besides, the IC50 in series [4], in series [5] and in series [7] was more than 26 µM in each case.

Regarding `Clc1ccc(-c2nnc(SCc3ccccc3)o2)cc1`, the IC90 in series [3] was 500 µM; in series [6] it was 4 µM. Besides, the IC50 in series [4], in series [5] and in series [7] was more than 26 µM throughout.

For the compound `COCC[S+]([O-])c1nnc(-c2ccc(Cl)cc2)o1` (stereo not shown) [drawing 265], the IC90 in series [1] came to 10 µM.

As for `Fc1cccc(-c2nnc(SCc3ccccc3)o2)c1`, the values for the IC90 in series [3] and in series [6] were 125 µM and 1 µM, respectively. Moreover, the IC50 in series [4], in series [5] and in series [7] was more than 26 µM each time.

`c1ccc(CSc2nnc(C3CCCC3)o2)cc1`: the IC90 in series [3] was 125 µM; in series [6], 0.5 µM. Further, the IC50 in series [4], in series [5] and in series [7] was more than 26 µM throughout.

With `Fc1ccc(Cn2cc(CSc3nnc(-c4ccc(F)cc4)o3)nn2)cc1`, the IC90 in series [3] was more than 62 µM; in series [6] it was 4 µM. The IC50 in series [4], in series [5] and in series [7] was more than 26 µM throughout.

In the case of `c1ccc(-c2nnc(SCCC3OCCCO3)o2)cc1` [drawing 258], the IC90 in series [1] was determined as 10 µM.

On to `c1ccc(-c2nnc(SCc3ccncc3)o2)cc1` [drawing 144], for which the IC90 in series [3] is 250 µM; in series [6], 31 µM. For the same compound, the 50% inhibitory concentration (IC50) in series [4], in series [5] and in series [7] was more than 26 µM in each case.

As to `[N-]=[N+]=NCCOCCNC(=O)CCCOc1ccc(CSc2nnc(-c3ccc(Cl)cc3)o2)nc1` [drawing 277], the “Against carbon starving non-replicating Mtb, % @ 8” value in series [1] is on record as 98% @ 8.

Take `Cc1cccc(CSc2nnc(-c3ccccc3)o2)c1`: the results for the IC90 in series [3] and in series [6] were 125 µM and 1 µM, respectively. Also, the half-maximal inhibitory concentration (IC50) in series [4], in series [5] and in series [7] was more than 26 µM throughout.

Consider `c1ccc(-c2nnc(SCc3ccccn3)o2)cc1` [drawing 142], for which the IC90 in series [3] is 100 µM; in series [6] it was 3 µM. Besides, the IC50 in series [4], in series [5] and in series [7] was more than 26 µM throughout.

For `Fc1ccc(-c2nnc(SCc3cn(Cc4ccccc4)nn3)o2)cc1`, the values for the IC90 in series [3] and in series [6] were more than 62 µM and 2 µM, respectively. The IC50 in series [4], in series [5] and in series [7] was more than 26 µM throughout.

Consider `c1ccc(-c2nnc(SCc3ncco3)o2)cc1`, for which the IC90 was 31 µM in series [3] and 16 µM in series [6]. For the same compound, the IC50 in series [4], in series [5] and in series [7] was more than 26 µM in each case.

As to `FC1(F)CN(CCSc2nnc(-c3ccccc3)o2)C1`, the IC90 in series [3] was 250 µM; in series [6], 1 µM. Further, the IC50 in series [4], in series [5] and in series [7] was more than 26 µM throughout.

`CS(=O)(=O)c1ccccc1-c1nnc(SCc2ccccc2)o1`: the results for the IC90 in series [3] and in series [6] were 500 µM and 62 µM, respectively. Further, the IC50 in series [4], in series [5] and in series [7] was more than 26 µM in each case.

As to `O=S(=O)(Cc1ccccc1)c1nnc(-c2ccccc2)o1` [drawing 268], the IC90 in series [1] amounted to 62 µM.

Consider `c1ccc(CCc2nnc(SCc3ccccc3)o2)cc1`, for which the concentration for an effect of 90% (IC90) in series [3] was 250 µM; in series [6], 32 µM. Further, the IC50 in series [4], in series [5] and in series [7] was more than 26 µM in each case.

With `c1ccc(CCc2nnc(-c3ccccc3)o2)cc1`, the IC90 is 250 µM in series [3] and 0.5 µM in series [6]. Moreover, the IC50 in series [4], in series [5] and in series [7] was more than 26 µM in each case.
